ChEMBL document CHEMBL1201862, “PubChem BioAssay data set” (2004)
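Values below derive from 48-hour exposures of cells grown in 96-well plates, with endpoints linearly interpolated between the two concentrations bracketing the appropriate inhibition level. GI50 = concentration required for 50% inhibition of growth.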 Active and inactive are the calls of the source. Cut-off read from the data, not from the text of the source: active = GI50 up to about 1.1 µM and inactive = higher.

Experiments:
Test in all cases: growth of human tumour cells (NCI), 48 h
SK-OV-3 = system: SK-OV-3
RPMI-8226 = system: RPMI-8226
OVCAR-5 = system: OVCAR-5
SW-620 = system: SW-620
LOX IMVI = system: LOX IMVI
SF-295 = system: SF-295
SF-539 = system: SF-539
NCI/ADR-RES = system: NCI/ADR-RES
NCI-H460 = system: NCI-H460
MDA-MB-435 = system: MDA-MB-435
CAKI-1 = system: CAKI-1
NCI-H522 = system: NCI-H522
HCT-116 = system: HCT-116
NCI-H23 = system: NCI-H23
HOP-62 = system: HOP-62
SK-MEL-5 = system: SK-MEL-5
NCI-H226 = system: NCI-H226
HL-60 = system: HL-60
RXF 393 = system: RXF 393
HOP-92 = system: HOP-92

Measured: GI50

N=C(N)NNC(=O)C(=O)O
inactive: SK-OV-3 55.1 µM | RPMI-8226 > 100 µM | OVCAR-5 > 100 µM | SW-620 > 100 µM | LOX IMVI > 100 µM | SF-295 > 100 µM | SF-539 > 100 µM | NCI/ADR-RES > 100 µM | NCI-H460 > 100 µM | MDA-MB-435 > 100 µM | CAKI-1 > 100 µM | NCI-H522 > 100 µM | HCT-116 > 100 µM | NCI-H23 > 100 µM | HOP-62 > 100 µM | SK-MEL-5 > 100 µM | NCI-H226 > 100 µM | HL-60 > 100 µM | RXF 393 > 100 µM

Oc1c(Cl)cc2cc1-c1cc(cc(Cl)c1O)CCc1c(cc(Cl)c(O)c1Cl)-c1cc(Cl)c(c(Cl)c1O)/C=C\2
inactive: SK-OV-3 9.16 µM | RPMI-8226 22.1 µM | OVCAR-5 10.8 µM | SW-620 9.44 µM | LOX IMVI 9.44 µM | NCI/ADR-RES 13.7 µM | NCI-H460 4.42 µM | MDA-MB-435 8.02 µM | HCT-116 8.11 µM | NCI-H23 13.3 µM | HOP-62 7.74 µM | SK-MEL-5 8.17 µM | NCI-H226 11.5 µM | HOP-92 16.8 µM | HL-60 5.61 µM | RXF 393 15.2 µM

O=C(O)c1ccn(-c2cccc(-n3ccc(C(=O)O)n3)n2)n1
inactive: SK-OV-3 > 100 µM | RPMI-8226 > 100 µM | OVCAR-5 > 100 µM | SW-620 > 100 µM | LOX IMVI > 100 µM | SF-295 > 100 µM | SF-539 > 100 µM | NCI/ADR-RES > 100 µM | NCI-H460 > 100 µM | MDA-MB-435 > 100 µM | CAKI-1 > 100 µM | NCI-H522 > 100 µM | HCT-116 > 100 µM | NCI-H23 > 100 µM | HOP-62 > 100 µM | SK-MEL-5 > 100 µM | NCI-H226 > 100 µM | HL-60 > 100 µM | RXF 393 > 100 µM

COc1cc2c(cc1OCCCC(=O)Nc1cc(C(=O)NCCCN(C)C)n(C)n1)N=CC1CCCN1C2=O (stereo not drawn)
inactive: SK-OV-3 > 42.2 µM | RPMI-8226 5.66 µM | OVCAR-5 10.5 µM | SW-620 8.63 µM | LOX IMVI 7.71 µM | SF-295 > 100 µM | SF-539 9.04 µM | NCI/ADR-RES > 33.5 µM | NCI-H460 9.89 µM | MDA-MB-435 40.9 µM | CAKI-1 21.6 µM | NCI-H522 5.37 µM | HCT-116 12.9 µM | NCI-H23 11.5 µM | HOP-62 > 20.8 µM | SK-MEL-5 5.68 µM | HOP-92 6.56 µM | RXF 393 9.18 µM

CC1(C)C(=O)C2(OS(=O)(=O)C(F)(F)F)CCC1C2 (stereo not drawn)
inactive: SK-OV-3 > 100 µM | RPMI-8226 > 100 µM | OVCAR-5 > 100 µM | SW-620 > 100 µM | LOX IMVI > 100 µM | SF-295 > 100 µM | SF-539 > 100 µM | NCI/ADR-RES > 100 µM | NCI-H460 > 100 µM | MDA-MB-435 > 100 µM | CAKI-1 > 100 µM | HCT-116 > 100 µM | NCI-H23 > 100 µM | HOP-62 > 100 µM | SK-MEL-5 > 100 µM | NCI-H226 > 100 µM | HOP-92 > 100 µM | HL-60 > 100 µM | RXF 393 > 100 µM

COC(=O)C1=C(C)C=C(N2CCOCC2)C(C(=O)OC)C1c1ccccc1 (stereo not drawn)
inactive: SK-OV-3 > 10 µM | RPMI-8226 > 10 µM | OVCAR-5 > 10 µM | SW-620 > 10 µM | LOX IMVI > 10 µM | SF-295 > 10 µM | SF-539 > 10 µM | NCI/ADR-RES > 10 µM | NCI-H460 > 10 µM | MDA-MB-435 > 10 µM | CAKI-1 > 10 µM | NCI-H522 > 10 µM | HCT-116 > 10 µM | NCI-H23 > 10 µM | HOP-62 > 10 µM | SK-MEL-5 > 10 µM | NCI-H226 > 10 µM | HOP-92 > 10 µM | RXF 393 > 10 µM

CC1=NN(C(=O)CC(=O)Nc2ccccc2)C(=O)C1/N=N/c1ccc(C(=O)O)cc1 (stereo not drawn)
inactive: RPMI-8226 > 100 µM | OVCAR-5 > 100 µM | SW-620 > 100 µM | LOX IMVI > 100 µM | SF-295 > 100 µM | SF-539 84.7 µM | NCI/ADR-RES > 100 µM | NCI-H460 > 100 µM | MDA-MB-435 > 100 µM | CAKI-1 > 100 µM | NCI-H522 > 100 µM | HCT-116 > 100 µM | NCI-H23 > 100 µM | HOP-62 75.9 µM | SK-MEL-5 > 100 µM | HOP-92 22.1 µM | HL-60 > 100 µM | RXF 393 > 100 µM

COC(CO[Si](C)(C)N[Si](C)(C)OCC(OC)c1ccccc1)c1ccccc1 (stereo not drawn)
inactive: SK-OV-3 > 100 µM | RPMI-8226 > 100 µM | OVCAR-5 > 100 µM | SW-620 > 100 µM | LOX IMVI > 100 µM | SF-295 > 100 µM | NCI/ADR-RES > 100 µM | NCI-H460 > 100 µM | MDA-MB-435 > 100 µM | CAKI-1 > 100 µM | HCT-116 > 100 µM | NCI-H23 > 100 µM | HOP-62 > 100 µM | SK-MEL-5 > 100 µM | NCI-H226 > 100 µM | HOP-92 > 100 µM | HL-60 > 100 µM | RXF 393 > 100 µM

CCOP(=O)(OCC)/C(=C\n1c(=S)[nH]c2cc(C)ccc21)C(=O)OC
inactive: SK-OV-3 > 100 µM | OVCAR-5 > 100 µM | SW-620 > 100 µM | LOX IMVI > 100 µM | SF-295 > 100 µM | SF-539 > 100 µM | NCI/ADR-RES > 100 µM | NCI-H460 > 100 µM | MDA-MB-435 > 100 µM | CAKI-1 > 100 µM | HCT-116 > 100 µM | NCI-H23 > 100 µM | HOP-62 > 100 µM | SK-MEL-5 > 100 µM | NCI-H226 > 100 µM | HOP-92 > 100 µM | HL-60 42.6 µM | RXF 393 > 100 µM

c1ccc2cc(OCC3CO3)c(OCC3CO3)cc2c1 (stereo not drawn)
active: LOX IMVI 1.03 µM | RXF 393 < 0.01 µM
inactive: SK-OV-3 10.6 µM | RPMI-8226 1.92 µM | OVCAR-5 11.4 µM | SW-620 1.91 µM | SF-295 2.21 µM | SF-539 2.65 µM | NCI/ADR-RES 4.05 µM | NCI-H460 4.2 µM | MDA-MB-435 10.1 µM | CAKI-1 4.09 µM | NCI-H522 1.87 µM | HCT-116 1.3 µM | NCI-H23 2.72 µM | HOP-62 1.43 µM | SK-MEL-5 9.23 µM | HOP-92 8.55 µM | HL-60 1.53 µM

CCCC(Sc1nc(N)nc2nc[nH]c12)C(=O)O (stereo not drawn)
inactive: SK-OV-3 58.3 µM | RPMI-8226 35.2 µM | OVCAR-5 63.1 µM | SW-620 > 100 µM | LOX IMVI 34.5 µM | SF-295 59.7 µM | NCI/ADR-RES 41.9 µM | NCI-H460 67 µM | MDA-MB-435 74.8 µM | CAKI-1 41 µM | NCI-H522 49 µM | HCT-116 42.1 µM | NCI-H23 > 100 µM | HOP-62 > 100 µM | SK-MEL-5 > 100 µM | NCI-H226 > 100 µM | HOP-92 > 100 µM | HL-60 > 100 µM | RXF 393 81.5 µM

ONCCCn1cnc2c(NC3CC3)ncnc21
inactive: SK-OV-3 > 100 µM | RPMI-8226 > 100 µM | OVCAR-5 > 100 µM | SW-620 > 100 µM | LOX IMVI > 100 µM | SF-295 > 100 µM | SF-539 > 100 µM | NCI/ADR-RES > 100 µM | NCI-H460 > 100 µM | MDA-MB-435 > 100 µM | CAKI-1 > 100 µM | NCI-H522 > 100 µM | HCT-116 > 100 µM | NCI-H23 > 100 µM | HOP-62 > 100 µM | SK-MEL-5 > 100 µM | NCI-H226 > 100 µM | HOP-92 > 100 µM | RXF 393 > 100 µM

CC(O)C(O)C(O)C(/C=N\Nc1ccccc1)=N/Nc1ccccc1 (stereo not drawn)
inactive: SK-OV-3 15.6 µM | RPMI-8226 18.3 µM | OVCAR-5 13.9 µM | SW-620 11.6 µM | LOX IMVI 4.58 µM | SF-295 11.6 µM | SF-539 15.1 µM | NCI/ADR-RES 11.2 µM | NCI-H460 10.7 µM | MDA-MB-435 13.4 µM | CAKI-1 2.18 µM | NCI-H522 8.09 µM | HCT-116 15.3 µM | NCI-H23 11.9 µM | HOP-62 14.4 µM | SK-MEL-5 15.1 µM | HOP-92 14.7 µM | HL-60 12.6 µM

Cc1cccc2c(=O)c3cccc(CC(=O)O)c3oc12
inactive: SK-OV-3 > 100 µM | RPMI-8226 > 100 µM | SW-620 > 100 µM | LOX IMVI > 100 µM | SF-295 > 100 µM | SF-539 > 100 µM | NCI/ADR-RES > 100 µM | NCI-H460 > 100 µM | MDA-MB-435 > 100 µM | CAKI-1 > 100 µM | NCI-H522 > 100 µM | HCT-116 > 100 µM | NCI-H23 > 100 µM | HOP-62 > 100 µM | SK-MEL-5 > 100 µM | NCI-H226 > 100 µM | HOP-92 > 100 µM | HL-60 > 100 µM

c1ccc([P+](CCSCCSCC[P+](c2ccccc2)(c2ccccc2)c2ccccc2)(c2ccccc2)c2ccccc2)cc1
inactive: SK-OV-3 > 100 µM | OVCAR-5 > 100 µM | SW-620 > 100 µM | SF-295 33 µM | SF-539 > 100 µM | NCI/ADR-RES > 100 µM | NCI-H460 > 100 µM | MDA-MB-435 > 100 µM | HCT-116 > 100 µM | NCI-H23 > 100 µM | HOP-62 > 100 µM | SK-MEL-5 > 100 µM | NCI-H226 > 100 µM | HOP-92 > 100 µM | HL-60 > 100 µM | RXF 393 > 100 µM
